From PMC8398847, “Isavuconazole: Thermodynamic Evaluation of Processes Sublimation, Dissolution and Partition in Pharmaceutically Relevant Media” (Molecules, 2021)
Read-outs that look alike come from different tables or passages of the source.

What was measured:
[1] = Solubility data modeling (modified Apelblat and van’t Hoff equations)
Text: The modified Apelblat model developed for nonideal solutions is one of the most frequently used models for prediction and correlation of solubility data and can be expressed as follows:(21) lnx=A+B/T/K+Cln(T/K) where x is the compound solubility in the studied solvents, which can be determined by Equation (8); T is the absolute temperature; A, B and C are three empirical constants of the equation. The A and B values represent changes in the solution behavior as a result of the nonideality of the solute solubility, whereas C reflects the connection between the melting point and enthalpy. Despite its simple mathematical expression, this model can ensure high accuracy of prediction of the solute solubility at a variety of temperature values.
The van’t Hoff equation can be used to calculate the relationship between the solubility of solute and temperature. The equation can be simplified as Equation (22). (22) lnx=A+B/(T/K) where x represents the mole fraction solubility of compound. T is the absolute temperature and A, B are the regression parameters obtained using multivariable least-square method.

[2] = Partition experiment, 1-octanol/buffer pH 7.4, shake flask; assay type: physicochemical; conditions: for logP at 24 h: 1-octanol/buffer pH 7.4, pH 7.4, 1-octanol/buffer pH 7.4, read-out: logP*O/B (mole fraction scale); for PO/B / logPO/B / sB · 10^6 (equilibrium molar concentration, buffer phase) / sO · 10^3 (equilibrium molar concentration, organic phase) / xB · 10^7 (mole fraction, buffer phase) / xo · 10^4 (mole fraction, 1-octanol phase): 1-octanol/buffer pH 7.4
Method: The partition coefficients in the 1-octanol/buffer pH 7.4 system were determined by the shake flask method in the temperature range 293.15–313.15 K. The total volume of the two-phase system 80 cm^3 with the ratio of the organic phase to the volume of the aqueous phase 1:1 was used. Before the experiment, both solvents were mutually saturated by stirring in a large vessel for two days. […] The flasks with the test compound were stirred for 24 h in an air thermostat until complete equilibrium was ensured, as evidenced by the absence of turbidity in each of the phases. The final drug concentrations in both immiscible phases were measured spectrophotometrically.
The partition coefficients in 1-octanol/buffer system (PO/B) were calculated as the ratio of the equilibrium molar concentrations in the organic (sO) and buffer (sB )phases:PO/B =sO/sB(9)
The value P*O/B expressed in mole fraction were determined by follow equation:P*O/B = xO/xB(10)
The standard transfer enthalpy of drug was calculated based on the experimental temperature dependence of partition coefficients using van’t Hoff method:(11) d(lnPO/B*)/dT=ΔtrH^0/RT^2 whereas the standard Gibbs energy of transfer process from the buffer to 1-octanol was evaluated:∆trG° = −RTlnP*O/B(12)
The standard transfer entropy (∆trS°) is obtained by means of relationship:∆trS° =(∆trH° − ∆trG°)/T(13)
The transfer thermodynamic functions represent the change in the enthalpy and entropy terms when one solute mole is transferred from the aqueous phase to the organic phase at infinite dilution.

[3] = transfer from buffer pH 7.4 to 1-octanol

xcal modified Apelblat equation ([1]; 1-octanol, 293.15 K): 6.2160·10^−3
xcal van’t Hoff equation ([1]; 1-octanol, 293.15 K): 6.2245·10^−3
xcal modified Apelblat equation ([1]; 1-octanol, 298.15 K): 7.4880·10^−3
xcal van’t Hoff equation ([1]; 1-octanol, 298.15 K): 7.4831·10^−3
xcal modified Apelblat equation ([1]; 1-octanol, 303.15 K): 8.9532·10^−3
xcal van’t Hoff equation ([1]; 1-octanol, 303.15 K): 8.9416·10^−3
xcal modified Apelblat equation ([1]; 1-octanol, 308.15 K): 10.629·10^−3
xcal van’t Hoff equation ([1]; 1-octanol, 308.15 K): 10.623·10^−3
xcal modified Apelblat equation ([1]; 1-octanol, 313.15 K): 12.534·10^−3
xcal van’t Hoff equation ([1]; 1-octanol, 313.15 K): 12.551·10^−3
xcal modified Apelblat equation ([1]; 1-propanol, 293.15 K): 7.8833·10^−3
xcal van’t Hoff equation ([1]; 1-propanol, 293.15 K): 7.8924·10^−3
xcal modified Apelblat equation ([1]; 1-propanol, 298.15 K): 9.5597·10^−3
xcal van’t Hoff equation ([1]; 1-propanol, 298.15 K): 9.5750·10^−3
xcal modified Apelblat equation ([1]; 1-propanol, 303.15 K): 11.528·10^−3
xcal van’t Hoff equation ([1]; 1-propanol, 303.15 K): 11.542·10^−3
xcal modified Apelblat equation ([1]; 1-propanol, 308.15 K): 13.827·10^−3
xcal van’t Hoff equation ([1]; 1-propanol, 308.15 K): 13.830·10^−3
xcal modified Apelblat equation ([1]; 1-propanol, 313.15 K): 16.501·10^−3
xcal van’t Hoff equation ([1]; 1-propanol, 313.15 K): 16.475·10^−3
xcal modified Apelblat equation ([1]; buffer pH 1.2, 293.15 K): 6.8301·10^−7
xcal van’t Hoff equation ([1]; buffer pH 1.2, 293.15 K): 6.8234·10^−7
xcal modified Apelblat equation ([1]; buffer pH 1.2, 298.15 K): 7.6469·10^−7
xcal van’t Hoff equation ([1]; buffer pH 1.2, 298.15 K): 7.6519·10^−7
xcal modified Apelblat equation ([1]; buffer pH 1.2, 303.15 K): 8.5388·10^−7
xcal van’t Hoff equation ([1]; buffer pH 1.2, 303.15 K): 8.5488·10^−7
xcal modified Apelblat equation ([1]; buffer pH 1.2, 308.15 K): 9.5109·10^−7
xcal van’t Hoff equation ([1]; buffer pH 1.2, 308.15 K): 9.5164·10^−7
xcal modified Apelblat equation ([1]; buffer pH 1.2, 313.15 K): 10.568·10^−7
xcal van’t Hoff equation ([1]; buffer pH 1.2, 313.15 K): 10.557·10^−7
xcal modified Apelblat equation ([1]; buffer pH 2.0, 293.15 K): 1.8489·10^−7
xcal van’t Hoff equation ([1]; buffer pH 2.0, 293.15 K): 1.8386·10^−7
xcal modified Apelblat equation ([1]; buffer pH 2.0, 298.15 K): 2.2301·10^−7
xcal van’t Hoff equation ([1]; buffer pH 2.0, 298.15 K): 2.2353·10^−7
xcal modified Apelblat equation ([1]; buffer pH 2.0, 303.15 K): 2.6872·10^−7
xcal van’t Hoff equation ([1]; buffer pH 2.0, 303.15 K): 2.7002·10^−7
xcal modified Apelblat equation ([1]; buffer pH 2.0, 308.15 K): 3.2354·10^−7
xcal van’t Hoff equation ([1]; buffer pH 2.0, 308.15 K): 3.2418·10^−7
xcal modified Apelblat equation ([1]; buffer pH 2.0, 313.15 K): 3.8914·10^−7
xcal van’t Hoff equation ([1]; buffer pH 2.0, 313.15 K): 3.8694·10^−7
xcal modified Apelblat equation ([1]; buffer pH 7.4, 293.15 K): 1.1915·10^−7
xcal van’t Hoff equation ([1]; buffer pH 7.4, 293.15 K): 1.1936·10^−7
xcal modified Apelblat equation ([1]; buffer pH 7.4, 298.15 K): 1.4708·10^−7
xcal van’t Hoff equation ([1]; buffer pH 7.4, 298.15 K): 1.4693·10^−7
xcal modified Apelblat equation ([1]; buffer pH 7.4, 303.15 K): 1.7998·10^−7
xcal van’t Hoff equation ([1]; buffer pH 7.4, 303.15 K): 1.7964·10^−7
xcal modified Apelblat equation ([1]; buffer pH 7.4, 308.15 K): 2.1840·10^−7
xcal van’t Hoff equation ([1]; buffer pH 7.4, 308.15 K): 2.1821·10^−7
xcal modified Apelblat equation ([1]; buffer pH 7.4, 313.15 K): 2.6294·10^−7
xcal van’t Hoff equation ([1]; buffer pH 7.4, 313.15 K): 2.6341·10^−7
xcal modified Apelblat equation ([1]; ethanol, 293.15 K): 0.9240·10^−2
xcal van’t Hoff equation ([1]; ethanol, 293.15 K): 0.9213·10^−2
xcal modified Apelblat equation ([1]; ethanol, 298.15 K): 1.1326·10^−2
xcal van’t Hoff equation ([1]; ethanol, 298.15 K): 1.1348·10^−2
xcal modified Apelblat equation ([1]; ethanol, 303.15 K): 1.3835·10^−2
xcal van’t Hoff equation ([1]; ethanol, 303.15 K): 1.3883·10^−2
xcal modified Apelblat equation ([1]; ethanol, 308.15 K): 1.6844·10^−2
xcal van’t Hoff equation ([1]; ethanol, 308.15 K): 1.6873·10^−2
xcal modified Apelblat equation ([1]; ethanol, 313.15 K): 2.0441·10^−2
xcal van’t Hoff equation ([1]; ethanol, 313.15 K): 2.0379·10^−2
xcal modified Apelblat equation ([1]; hexane, 293.15 K): 5.5187·10^−5
xcal van’t Hoff equation ([1]; hexane, 293.15 K): 5.5171·10^−5
xcal modified Apelblat equation ([1]; hexane, 298.15 K): 7.0549·10^−5
xcal van’t Hoff equation ([1]; hexane, 298.15 K): 7.0584·10^−5
xcal modified Apelblat equation ([1]; hexane, 303.15 K): 8.9506·10^−5
xcal van’t Hoff equation ([1]; hexane, 303.15 K): 8.9572·10^−5
xcal modified Apelblat equation ([1]; hexane, 308.15 K): 11.274·10^−5
xcal van’t Hoff equation ([1]; hexane, 308.15 K): 11.279·10^−5
xcal modified Apelblat equation ([1]; hexane, 313.15 K): 14.103·10^−5
xcal van’t Hoff equation ([1]; hexane, 313.15 K): 14.099·10^−5
logP at 24 h ([2]; 293.15 K): 3.44
logP at 24 h ([2]; 298.15 K): 3.5
logP at 24 h ([2]; 303.15 K): 3.56
logP at 24 h ([2]; 308.15 K): 3.62
logP at 24 h ([2]; 313.15 K): 3.68
PO/B ([2]; 293.15 K): 313.71
logPO/B ([2]; 293.15 K): 2.50
sB · 10^6 (equilibrium molar concentration, buffer phase) ([2]; 293.15 K): 6.85
sO · 10^3 (equilibrium molar concentration, organic phase) ([2]; 293.15 K): 2.15
xB · 10^7 (mole fraction, buffer phase) ([2]; 293.15 K): 1.22
xo · 10^4 (mole fraction, 1-octanol phase) ([2]; 293.15 K): 3.39
PO/B ([2]; 298.15 K): 359.18
logPO/B ([2]; 298.15 K): 2.56
sB · 10^6 (equilibrium molar concentration, buffer phase) ([2]; 298.15 K): 5.98
sO · 10^3 (equilibrium molar concentration, organic phase) ([2]; 298.15 K): 2.15
xB · 10^7 (mole fraction, buffer phase) ([2]; 298.15 K): 1.07
xo · 10^4 (mole fraction, 1-octanol phase) ([2]; 298.15 K): 3.40
PO/B ([2]; 303.15 K): 413.63
logPO/B ([2]; 303.15 K): 2.62
sB · 10^6 (equilibrium molar concentration, buffer phase) ([2]; 303.15 K): 5.20
sO · 10^3 (equilibrium molar concentration, organic phase) ([2]; 303.15 K): 2.15
xB · 10^7 (mole fraction, buffer phase) ([2]; 303.15 K): 0.93
xo · 10^4 (mole fraction, 1-octanol phase) ([2]; 303.15 K): 3.42
PO/B ([2]; 308.15 K): 474.77
logPO/B ([2]; 308.15 K): 2.68
sB · 10^6 (equilibrium molar concentration, buffer phase) ([2]; 308.15 K): 4.53
sO · 10^3 (equilibrium molar concentration, organic phase) ([2]; 308.15 K): 2.15
xB · 10^7 (mole fraction, buffer phase) ([2]; 308.15 K): 0.81
xo · 10^4 (mole fraction, 1-octanol phase) ([2]; 308.15 K): 3.43
PO/B ([2]; 313.15 K): 535.22
logPO/B ([2]; 313.15 K): 2.73
sB · 10^6 (equilibrium molar concentration, buffer phase) ([2]; 313.15 K): 4.02
sO · 10^3 (equilibrium molar concentration, organic phase) ([2]; 313.15 K): 2.15
xB · 10^7 (mole fraction, buffer phase) ([2]; 313.15 K): 0.72
xo · 10^4 (mole fraction, 1-octanol phase) ([2]; 313.15 K): 3.45
TΔtrS° [2, 3]: TΔtrS° = 40.9 ± 1.5/kJ·mol^−1
ΔtrG° [2, 3]: ΔtrG° = −19.99 ± 0.4/kJ·mol^−1
ΔtrH° [2, 3]: ΔtrH° = 20.95 ± 0.2/kJ·mol^−1
ΔtrS° [2, 3]: ΔtrS° = 137.3 ± 5.2/J·mol^−1K^−1
Compound: C[C@@H](c1nc(-c2ccc(C#N)cc2)cs1)[C@](O)(Cn1cncn1)c1cc(F)ccc1F [IVZ, Isavuconazole]
